The results in this text go back to ChEMBL document CHEMBL3085731, “Novel water-soluble prodrugs of acyclovir cleavable by the dipeptidyl-peptidase IV (DPP IV/CD26) enzyme” (Eur J Med Chem, 2013).

The nature of data set [1]: Prodrug conversion in PBS buffer assessed as ACV formation at 50 uM after 24 hrs by HPLC analysis. The class given is ADME.
The nature of data set [2]: Chemical stability of the compound in sodium phosphate buffer at pH 3.2 after 6 hrs. The class given is physicochemical. The conditions noted are these: pH 3.2, 6 h.
For data set [3], the system named is Human alphaherpesvirus 1. The experiment in a line: Antiviral activity against thymidine kinase-deficient ACV-resistant Herpes simplex virus 1 KOS infected in HEL cells assessed as inhibition of virus-induced cytopathicity. The class given is functional, organism-based. The conditions noted are these: Human alphaherpesvirus 1, KOS. On the technique in general: Protection from cytopathic effect is a common read-out in antiviral testing.

Data set [4] has as its system Human alphaherpesvirus 2. In words: Antiviral activity against Herpes simplex virus 2 G infected in HEL cells assessed as inhibition of virus-induced cytopathicity. The class given is functional, organism-based. The conditions noted are these: Human alphaherpesvirus 2, strain G.
In data set [5] the target is T1, Dipeptidyl peptidase 4 (Homo sapiens, UniProt P27487). The experiment in a line: Prodrug conversion assessed as human dipeptidyl peptidase 4-mediated Val-ACV formation at 50 uM after 24 hrs by HPLC analysis. The class given is ADME. The conditions noted are these: isolated protein.
T1 sequence (P27487 whole entry): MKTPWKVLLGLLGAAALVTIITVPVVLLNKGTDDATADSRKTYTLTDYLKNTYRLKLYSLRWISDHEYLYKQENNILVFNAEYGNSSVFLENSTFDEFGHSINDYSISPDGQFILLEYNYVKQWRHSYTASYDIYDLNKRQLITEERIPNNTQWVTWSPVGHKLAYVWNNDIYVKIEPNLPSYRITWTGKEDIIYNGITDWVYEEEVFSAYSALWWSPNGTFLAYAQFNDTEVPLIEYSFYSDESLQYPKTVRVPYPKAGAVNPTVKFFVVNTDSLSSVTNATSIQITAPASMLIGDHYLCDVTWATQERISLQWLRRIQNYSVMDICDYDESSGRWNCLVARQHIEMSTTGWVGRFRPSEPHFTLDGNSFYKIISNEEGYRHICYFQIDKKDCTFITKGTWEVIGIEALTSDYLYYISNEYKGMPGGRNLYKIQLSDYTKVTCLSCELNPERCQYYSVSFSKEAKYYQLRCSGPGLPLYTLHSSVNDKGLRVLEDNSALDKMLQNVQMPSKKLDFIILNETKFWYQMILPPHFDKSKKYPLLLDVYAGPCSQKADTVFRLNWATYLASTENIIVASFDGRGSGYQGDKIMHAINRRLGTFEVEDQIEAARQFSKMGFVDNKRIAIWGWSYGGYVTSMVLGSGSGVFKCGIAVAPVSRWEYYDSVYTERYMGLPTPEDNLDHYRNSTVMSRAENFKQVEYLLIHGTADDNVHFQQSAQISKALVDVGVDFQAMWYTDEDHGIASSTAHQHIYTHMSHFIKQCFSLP
In data set [6] the test system is Human alphaherpesvirus 1. The experiment in a line: Antiviral activity against Herpes simplex virus 1 KOS infected in HEL cells assessed as inhibition of virus-induced cytopathicity. The class given is functional, organism-based. The conditions noted are these: Human alphaherpesvirus 1, KOS.
Data set [7] in a line: Solubility of the compound in deionized water at pH 5.5 after overnight incubation by HPLC analysis. The class given is physicochemical.
The target in data set [8] is Dipeptidyl peptidase 4 (Bos taurus, UniProt P81425). In words: Prodrug conversion assessed as dipeptidyl peptidase 4-mediated ACV formation in bovine serum at 50 uM after 2 hrs by HPLC analysis. The class given is ADME. The conditions noted are these: cattle.
Dipeptidyl peptidase 4 (Bos taurus, UniProt P81425), sequence (P81425 whole entry): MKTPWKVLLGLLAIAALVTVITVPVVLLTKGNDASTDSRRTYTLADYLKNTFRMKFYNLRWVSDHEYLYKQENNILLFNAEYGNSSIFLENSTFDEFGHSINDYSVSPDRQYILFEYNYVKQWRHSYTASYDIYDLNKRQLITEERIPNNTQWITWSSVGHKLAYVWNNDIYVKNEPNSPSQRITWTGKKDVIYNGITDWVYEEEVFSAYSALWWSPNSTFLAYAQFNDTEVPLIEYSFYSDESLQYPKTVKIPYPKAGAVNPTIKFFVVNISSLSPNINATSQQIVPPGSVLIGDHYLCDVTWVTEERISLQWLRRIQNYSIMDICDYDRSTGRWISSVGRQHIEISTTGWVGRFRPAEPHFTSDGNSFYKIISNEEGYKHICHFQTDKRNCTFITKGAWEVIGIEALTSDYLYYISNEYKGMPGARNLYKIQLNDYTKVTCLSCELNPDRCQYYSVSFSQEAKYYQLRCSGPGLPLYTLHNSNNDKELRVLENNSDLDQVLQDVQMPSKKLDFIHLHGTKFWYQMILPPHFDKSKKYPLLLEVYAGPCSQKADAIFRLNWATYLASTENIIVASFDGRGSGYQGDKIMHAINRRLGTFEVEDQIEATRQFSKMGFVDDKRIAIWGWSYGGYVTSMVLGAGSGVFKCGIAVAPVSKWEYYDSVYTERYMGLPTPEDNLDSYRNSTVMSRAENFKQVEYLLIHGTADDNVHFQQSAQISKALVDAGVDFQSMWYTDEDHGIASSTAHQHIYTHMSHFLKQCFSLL
Data set [9] can be described thus: Prodrug conversion in PBS buffer assessed as ACV formation at 50 uM after 2 hrs by HPLC analysis. The class given is ADME.
Data set [10] addresses T1, Dipeptidyl peptidase 4. In words: Prodrug conversion assessed as dipeptidyl peptidase 4-mediated ACV formation in human serum at 50 uM after 2 hrs by HPLC analysis. The class given is ADME.
Data set [11] deals with T1, Dipeptidyl peptidase 4. The experiment in a line: Prodrug conversion assessed as dipeptidyl peptidase 4-mediated ACV formation in human serum at 50 uM after 24 hrs by HPLC analysis. The class given is ADME.
Data set [12] deals with T1, Dipeptidyl peptidase 4. The experiment in a line: Prodrug conversion assessed as dipeptidyl peptidase 4-mediated ACV formation in human serum at 50 uM after 1 hr by HPLC analysis. The class given is ADME.
Data set [13] can be described thus: Oral bioavailability in human. The class given is ADME, organism-based. The conditions noted are these: in vivo.

pEC50: −log10 of the molar value. Converted amounts (≈) assume the structure as drawn. Residues, ends and D or L forms follow the SMILES beside them. *: point of attachment. X1 = O=c1[nH]c(N*)nc2c1ncn2COCCO

Regarding `CC(C)[C@H](N)C(=O)N1CCC[C@H]1C(=O)N[C@H](C(=O)OCCOCn1cnc2c(=O)[nH]c(N)nc21)C(C)C`, the Drug metabolism result is “Not Active” in [1] and “Active” in data set [5]. Further, the Stability result in data set [2] is listed as “Stable”. For the same compound, the pEC50 (in general, the negative decadic logarithm of the EC50, by convention in mol/L) in [3] was 4.49; in data set [4], 5.80; in [6], 6.22. Also, in data set [7], the concentration in solution (solubility) came to 12.2 mg/mL (≈ 23.4 mM).
For `CC(C)[C@H](N)C(=O)OCCOCn1cnc2c(=O)[nH]c(N)nc21` [VALACYCLOVIR], the Drug metabolism result in data set [8], in data set [9] and in data set [10] was “Active” in each case.
Turning to `CC(C)[C@H](N)C(=O)N1CCC[C@H]1C(=O)N[C@H](C(=O)N1CCC[C@H]1C(=O)Nc1nc2c(ncn2COCCO)c(=O)[nH]1)C(C)C` (H-VPVP-X1), the Drug metabolism result in data set [1], in data set [11] and in data set [12] was “Active” throughout. Moreover, the Stability result in data set [2] was “Stable”. Besides, the negative-log EC50 (pEC50) in data set [3] was 4.14; in [4] it was 5.31; in data set [6] it was 5.74. In addition, in data set [7], the solubility (usually the dissolved amount per volume that the medium holds) was found to be 22.9 mg/mL (≈ 37 mM).
With `Nc1nc2c(ncn2COCCO)c(=O)[nH]1` [ACYCLOVIR], the bioavailability (usually dose-corrected exposure relative to a reference, in per cent) in data set [13] was 10%. Moreover, the pEC50 in [3] was 4.74; in data set [4], 6.30. The compound further displayed a solubility in data set [7] of 1.29 mg/mL (≈ 5.73 mM).
